Experiment [1] concerns the target Serine/threonine-protein kinase Nek6 (Homo sapiens) (UniProt Q9HC98).
Experiment [2] addresses Serine/threonine-protein kinase PLK1 (Homo sapiens) (UniProt P53350).
Experiment [3] has as its target Cyclin-dependent kinase 16 (Homo sapiens) (UniProt Q00536).
Experiment [4] addresses Ribosomal protein S6 kinase alpha-3 (Homo sapiens) (UniProt P51812).
For experiment [5], the target named is Death-associated protein kinase 3 (Homo sapiens) (UniProt O43293).
The target of experiment [6] is Serine/threonine-protein kinase 25 (Homo sapiens) (UniProt O00506).
Serine/threonine-protein kinase 25 (Homo sapiens), sequence (O00506 whole entry, looked up): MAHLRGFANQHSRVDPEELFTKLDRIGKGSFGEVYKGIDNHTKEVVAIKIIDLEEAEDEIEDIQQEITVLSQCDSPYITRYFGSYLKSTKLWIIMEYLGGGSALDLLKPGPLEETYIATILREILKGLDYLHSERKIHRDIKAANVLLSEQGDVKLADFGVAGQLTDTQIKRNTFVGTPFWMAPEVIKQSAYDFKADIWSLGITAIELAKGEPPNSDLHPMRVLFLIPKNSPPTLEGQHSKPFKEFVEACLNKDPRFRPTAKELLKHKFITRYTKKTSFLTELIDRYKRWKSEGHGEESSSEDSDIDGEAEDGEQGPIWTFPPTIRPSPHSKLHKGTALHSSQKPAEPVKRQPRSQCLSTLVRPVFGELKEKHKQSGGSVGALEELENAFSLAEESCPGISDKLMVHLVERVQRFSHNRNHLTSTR
The target of experiment [7] is Mitogen-activated protein kinase 3 (Homo sapiens, UniProt P27361).
The target of experiment [8] is Calcium/calmodulin-dependent protein kinase type 1G (Homo sapiens) (UniProt Q96NX5).
Calcium/calmodulin-dependent protein kinase type 1G (Homo sapiens), sequence (Q96NX5 whole entry): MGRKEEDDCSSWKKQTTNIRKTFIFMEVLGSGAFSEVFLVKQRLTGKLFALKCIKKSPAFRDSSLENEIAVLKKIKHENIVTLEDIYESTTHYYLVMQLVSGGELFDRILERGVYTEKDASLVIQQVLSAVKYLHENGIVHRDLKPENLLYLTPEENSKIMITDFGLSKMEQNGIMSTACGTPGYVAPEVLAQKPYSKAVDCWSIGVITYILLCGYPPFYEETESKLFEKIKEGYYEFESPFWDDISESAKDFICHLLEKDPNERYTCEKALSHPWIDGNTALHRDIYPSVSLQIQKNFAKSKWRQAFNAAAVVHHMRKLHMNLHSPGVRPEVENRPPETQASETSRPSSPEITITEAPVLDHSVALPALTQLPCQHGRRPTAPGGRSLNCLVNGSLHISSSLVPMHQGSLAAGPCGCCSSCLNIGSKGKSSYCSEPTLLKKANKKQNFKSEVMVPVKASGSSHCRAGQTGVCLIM
Experiment [9] addresses Serine/threonine-protein kinase 38 (Homo sapiens) (UniProt Q15208).
Experiment [10] addresses T1, Serine/threonine-protein kinase VRK3 (Homo sapiens) (UniProt Q8IV63).
T1 sequence (whole entry): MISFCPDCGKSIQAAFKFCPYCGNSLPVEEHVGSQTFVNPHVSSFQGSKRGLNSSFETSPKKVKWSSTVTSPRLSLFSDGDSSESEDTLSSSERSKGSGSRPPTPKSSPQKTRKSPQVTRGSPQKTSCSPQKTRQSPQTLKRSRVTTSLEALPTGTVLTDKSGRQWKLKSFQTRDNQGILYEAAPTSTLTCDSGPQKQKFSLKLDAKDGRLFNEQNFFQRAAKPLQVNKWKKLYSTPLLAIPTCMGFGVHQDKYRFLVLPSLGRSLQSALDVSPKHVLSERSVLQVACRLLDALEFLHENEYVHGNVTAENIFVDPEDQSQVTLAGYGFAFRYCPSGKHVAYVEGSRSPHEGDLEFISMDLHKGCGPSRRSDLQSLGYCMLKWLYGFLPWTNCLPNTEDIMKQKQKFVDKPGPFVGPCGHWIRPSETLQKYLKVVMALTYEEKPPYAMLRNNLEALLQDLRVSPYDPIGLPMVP

Experiment [11] addresses 5'-AMP-activated protein kinase catalytic subunit alpha-2 (Homo sapiens) (UniProt P54646).
Experiment [12] addresses Calcium/calmodulin-dependent protein kinase type 1D (Homo sapiens) (UniProt Q8IU85).
In experiment [13] the target is Casein kinase I isoform gamma-3 (Homo sapiens) (UniProt Q9Y6M4).
Experiment [14] concerns the target Dual specificity mitogen-activated protein kinase kinase 2 (Homo sapiens, UniProt P36507).
Experiment [15] deals with Serine/threonine-protein kinase 26 (Homo sapiens) (UniProt Q9P289).
Serine/threonine-protein kinase 26 (Homo sapiens), sequence (Q9P289 2-416 limits assumed): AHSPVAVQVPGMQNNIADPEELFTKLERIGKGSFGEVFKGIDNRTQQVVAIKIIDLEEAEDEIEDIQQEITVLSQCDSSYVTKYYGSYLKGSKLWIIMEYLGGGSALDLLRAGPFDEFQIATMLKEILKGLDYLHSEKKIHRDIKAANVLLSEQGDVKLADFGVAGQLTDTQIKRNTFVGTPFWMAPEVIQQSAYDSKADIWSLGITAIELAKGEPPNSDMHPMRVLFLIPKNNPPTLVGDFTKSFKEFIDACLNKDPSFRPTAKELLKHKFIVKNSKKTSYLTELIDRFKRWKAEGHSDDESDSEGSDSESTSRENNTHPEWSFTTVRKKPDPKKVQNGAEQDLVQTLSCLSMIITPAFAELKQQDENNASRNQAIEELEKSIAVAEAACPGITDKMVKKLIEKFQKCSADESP
Experiment [16] concerns the target Calcium/calmodulin-dependent protein kinase kinase 2 (Homo sapiens, UniProt Q96RR4).
The target in experiment [17] is Calcium/calmodulin-dependent protein kinase type II subunit delta (Homo sapiens) (UniProt Q13557).
Experiment [18] deals with T2, Lymphokine-activated killer T-cell-originated protein kinase (Homo sapiens) (UniProt Q96KB5).
T2 sequence (whole entry): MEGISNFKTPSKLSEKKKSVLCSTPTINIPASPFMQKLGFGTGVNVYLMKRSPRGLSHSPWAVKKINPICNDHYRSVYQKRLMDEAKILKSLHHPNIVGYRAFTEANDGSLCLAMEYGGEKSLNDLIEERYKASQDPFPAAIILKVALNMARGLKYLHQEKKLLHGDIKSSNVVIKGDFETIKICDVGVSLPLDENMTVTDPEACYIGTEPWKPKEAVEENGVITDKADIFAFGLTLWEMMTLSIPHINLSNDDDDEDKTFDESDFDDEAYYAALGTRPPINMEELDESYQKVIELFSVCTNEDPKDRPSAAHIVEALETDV

Experiment [19] addresses T3, Dual specificity mitogen-activated protein kinase kinase 6 (Homo sapiens) (UniProt P52564).
T3 sequence (whole entry): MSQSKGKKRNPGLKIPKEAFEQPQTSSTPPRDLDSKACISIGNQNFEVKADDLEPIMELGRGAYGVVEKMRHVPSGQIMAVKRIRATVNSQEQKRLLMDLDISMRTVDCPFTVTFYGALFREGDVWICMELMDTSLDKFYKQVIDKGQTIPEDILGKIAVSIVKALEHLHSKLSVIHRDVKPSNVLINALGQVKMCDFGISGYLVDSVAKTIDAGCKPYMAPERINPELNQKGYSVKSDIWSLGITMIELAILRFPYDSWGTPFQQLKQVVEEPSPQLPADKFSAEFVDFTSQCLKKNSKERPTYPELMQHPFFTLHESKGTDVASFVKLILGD

Experiment [20] concerns the target Serine/threonine-protein kinase RIO2 (Homo sapiens) (UniProt Q9BVS4).
Experiment [21] addresses T4, Calcium/calmodulin-dependent protein kinase type IV (Homo sapiens) (UniProt Q16566).
T4 sequence (whole entry): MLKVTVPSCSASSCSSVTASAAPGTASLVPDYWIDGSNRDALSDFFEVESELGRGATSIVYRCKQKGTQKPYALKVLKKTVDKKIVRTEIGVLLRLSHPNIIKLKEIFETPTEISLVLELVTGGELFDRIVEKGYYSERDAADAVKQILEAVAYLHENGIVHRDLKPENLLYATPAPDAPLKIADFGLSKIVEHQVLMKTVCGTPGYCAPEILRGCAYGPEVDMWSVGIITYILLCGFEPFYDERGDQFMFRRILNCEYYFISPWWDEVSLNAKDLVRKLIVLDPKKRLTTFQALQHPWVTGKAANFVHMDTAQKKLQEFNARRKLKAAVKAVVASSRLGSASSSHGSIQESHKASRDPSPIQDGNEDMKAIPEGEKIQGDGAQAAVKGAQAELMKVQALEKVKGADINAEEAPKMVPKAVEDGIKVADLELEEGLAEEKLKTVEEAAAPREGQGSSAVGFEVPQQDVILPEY

7 molecules from ChEMBL document CHEMBL1145498, “A systematic interaction map of validated kinase inhibitors with Ser/Thr kinases” (Proc Natl Acad Sci U S A, 2007) can be followed below.

The term ΔTm denotes the shift of the melting midpoint relative to a reference.

Ribosomal protein S6 kinase alpha-3 (Homo sapiens), sequence (P51812 whole entry): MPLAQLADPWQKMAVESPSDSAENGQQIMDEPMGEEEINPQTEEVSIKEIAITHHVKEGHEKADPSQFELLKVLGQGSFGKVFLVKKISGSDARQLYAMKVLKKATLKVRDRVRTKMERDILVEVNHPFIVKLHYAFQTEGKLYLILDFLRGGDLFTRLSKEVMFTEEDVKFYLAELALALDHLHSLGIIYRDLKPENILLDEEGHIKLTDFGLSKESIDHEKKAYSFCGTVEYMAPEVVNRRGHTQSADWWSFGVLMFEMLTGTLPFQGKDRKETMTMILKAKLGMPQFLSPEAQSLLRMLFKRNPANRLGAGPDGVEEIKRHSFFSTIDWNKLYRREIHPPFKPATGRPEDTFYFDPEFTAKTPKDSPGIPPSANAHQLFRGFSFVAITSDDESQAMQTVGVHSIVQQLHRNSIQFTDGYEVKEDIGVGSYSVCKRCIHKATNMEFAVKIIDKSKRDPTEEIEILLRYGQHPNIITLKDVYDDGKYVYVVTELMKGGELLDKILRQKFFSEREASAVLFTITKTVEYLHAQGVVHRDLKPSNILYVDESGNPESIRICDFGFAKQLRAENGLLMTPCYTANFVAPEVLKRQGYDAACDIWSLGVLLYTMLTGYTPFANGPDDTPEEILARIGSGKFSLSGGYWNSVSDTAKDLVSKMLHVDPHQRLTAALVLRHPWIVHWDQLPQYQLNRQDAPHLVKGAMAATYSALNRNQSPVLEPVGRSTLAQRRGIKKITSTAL
Dual specificity mitogen-activated protein kinase kinase 2, sequence (P36507 whole entry): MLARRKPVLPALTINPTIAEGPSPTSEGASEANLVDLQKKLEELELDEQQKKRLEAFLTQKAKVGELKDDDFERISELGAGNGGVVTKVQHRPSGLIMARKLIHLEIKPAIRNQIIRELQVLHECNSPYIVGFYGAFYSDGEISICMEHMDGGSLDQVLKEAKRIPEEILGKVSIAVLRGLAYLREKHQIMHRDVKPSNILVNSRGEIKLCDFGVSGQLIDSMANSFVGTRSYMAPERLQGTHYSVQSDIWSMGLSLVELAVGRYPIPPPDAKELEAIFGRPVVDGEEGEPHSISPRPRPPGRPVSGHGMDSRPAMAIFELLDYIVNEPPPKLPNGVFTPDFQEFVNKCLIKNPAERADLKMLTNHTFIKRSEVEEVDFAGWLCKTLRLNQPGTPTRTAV
Cyclin-dependent kinase 16 (Homo sapiens), sequence (Q00536 whole entry): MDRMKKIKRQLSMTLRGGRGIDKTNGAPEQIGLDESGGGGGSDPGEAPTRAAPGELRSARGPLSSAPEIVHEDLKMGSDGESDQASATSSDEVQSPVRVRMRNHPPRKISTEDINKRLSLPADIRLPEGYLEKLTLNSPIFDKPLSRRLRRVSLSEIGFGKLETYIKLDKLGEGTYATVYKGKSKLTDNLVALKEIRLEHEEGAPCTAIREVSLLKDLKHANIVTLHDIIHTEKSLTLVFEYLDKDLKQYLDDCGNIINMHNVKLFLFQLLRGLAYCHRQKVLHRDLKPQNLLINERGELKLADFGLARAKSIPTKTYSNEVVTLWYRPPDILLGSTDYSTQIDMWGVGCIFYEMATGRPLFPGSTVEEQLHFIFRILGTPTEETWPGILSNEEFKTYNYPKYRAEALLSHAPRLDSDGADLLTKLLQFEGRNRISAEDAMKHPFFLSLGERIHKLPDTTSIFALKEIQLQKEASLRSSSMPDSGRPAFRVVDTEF
5'-AMP-activated protein kinase catalytic subunit alpha-2 (Homo sapiens), sequence (P54646 whole entry, looked up): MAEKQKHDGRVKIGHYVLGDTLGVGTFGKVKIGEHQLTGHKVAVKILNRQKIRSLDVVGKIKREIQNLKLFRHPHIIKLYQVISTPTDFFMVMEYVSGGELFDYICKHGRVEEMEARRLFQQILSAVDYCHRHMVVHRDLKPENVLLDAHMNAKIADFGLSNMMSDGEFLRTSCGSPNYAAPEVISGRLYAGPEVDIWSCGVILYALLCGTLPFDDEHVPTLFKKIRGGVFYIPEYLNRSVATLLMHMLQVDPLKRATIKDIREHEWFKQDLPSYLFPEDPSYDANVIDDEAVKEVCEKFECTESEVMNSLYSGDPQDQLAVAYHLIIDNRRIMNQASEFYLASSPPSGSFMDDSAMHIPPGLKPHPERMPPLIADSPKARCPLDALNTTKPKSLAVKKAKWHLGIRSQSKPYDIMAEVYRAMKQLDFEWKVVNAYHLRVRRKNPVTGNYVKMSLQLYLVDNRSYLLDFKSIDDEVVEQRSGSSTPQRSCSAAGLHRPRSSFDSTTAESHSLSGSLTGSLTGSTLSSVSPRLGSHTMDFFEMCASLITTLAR
Calcium/calmodulin-dependent protein kinase type 1D (Homo sapiens), sequence (Q8IU85 whole entry, looked up, canonical isoform): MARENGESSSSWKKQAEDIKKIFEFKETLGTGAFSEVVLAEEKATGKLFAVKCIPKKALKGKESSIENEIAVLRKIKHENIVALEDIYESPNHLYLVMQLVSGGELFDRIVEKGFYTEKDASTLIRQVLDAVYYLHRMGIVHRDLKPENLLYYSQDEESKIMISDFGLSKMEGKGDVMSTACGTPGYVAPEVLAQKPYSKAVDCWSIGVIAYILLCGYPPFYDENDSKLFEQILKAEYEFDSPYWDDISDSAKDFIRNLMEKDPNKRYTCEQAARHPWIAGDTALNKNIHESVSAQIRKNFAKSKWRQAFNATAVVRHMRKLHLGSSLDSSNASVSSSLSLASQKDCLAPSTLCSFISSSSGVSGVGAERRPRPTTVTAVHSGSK
Death-associated protein kinase 3 (Homo sapiens), sequence (O43293 whole entry, looked up): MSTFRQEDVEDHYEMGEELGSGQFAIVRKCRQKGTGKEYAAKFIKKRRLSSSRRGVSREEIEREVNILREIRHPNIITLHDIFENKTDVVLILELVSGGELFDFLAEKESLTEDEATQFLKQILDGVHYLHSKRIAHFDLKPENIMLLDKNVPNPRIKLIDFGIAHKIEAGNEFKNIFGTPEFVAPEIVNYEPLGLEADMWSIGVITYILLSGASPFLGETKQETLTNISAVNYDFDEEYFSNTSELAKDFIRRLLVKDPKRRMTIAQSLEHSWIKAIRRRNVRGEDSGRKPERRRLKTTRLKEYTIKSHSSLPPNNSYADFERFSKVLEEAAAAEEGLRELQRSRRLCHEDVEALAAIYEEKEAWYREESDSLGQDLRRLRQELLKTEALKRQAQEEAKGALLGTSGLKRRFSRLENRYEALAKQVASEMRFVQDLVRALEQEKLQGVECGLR
Serine/threonine-protein kinase RIO2 (Homo sapiens), sequence (Q9BVS4 whole entry, looked up): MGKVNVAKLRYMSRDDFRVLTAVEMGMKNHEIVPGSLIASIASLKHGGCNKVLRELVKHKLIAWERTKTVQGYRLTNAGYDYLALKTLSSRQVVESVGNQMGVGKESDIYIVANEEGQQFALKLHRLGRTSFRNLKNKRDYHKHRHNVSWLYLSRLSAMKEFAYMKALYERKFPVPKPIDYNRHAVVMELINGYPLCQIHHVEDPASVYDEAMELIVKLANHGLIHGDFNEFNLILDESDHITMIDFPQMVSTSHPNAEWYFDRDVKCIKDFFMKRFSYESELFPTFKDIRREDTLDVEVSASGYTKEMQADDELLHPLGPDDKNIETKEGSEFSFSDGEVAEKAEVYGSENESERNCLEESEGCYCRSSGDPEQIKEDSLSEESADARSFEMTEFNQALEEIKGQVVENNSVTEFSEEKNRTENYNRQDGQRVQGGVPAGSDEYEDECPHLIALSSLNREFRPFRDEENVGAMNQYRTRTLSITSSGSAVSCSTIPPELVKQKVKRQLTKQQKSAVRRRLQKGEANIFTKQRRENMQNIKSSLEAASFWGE

On to `Cl.Cn1cc(C2=C(c3ccc4cc5n(c4c3)CCC(CN)C5)C(=O)NC2=O)c2ccccc21` (configuration not stated), for which the ΔTm in [1] was -0.7 °C; in experiment [2], 0.1 °C; in [3], 2.9 °C; in [4] it was 6 °C; in [5], 0.7 °C; in [6], 0.7 °C. Besides, the ΔTm is -0.5 °C in experiment [7]; 0.3 °C in experiment [8]; 0.4 °C in [9]; 0.6 °C in [10]; -0.4 °C in experiment [11]; 0.3 °C in experiment [12]. Moreover, the ΔTm in [13] was 0.6 °C; in experiment [14], 0.1 °C; in [15], 0.3 °C; in experiment [16] it was -1.3 °C; in experiment [17], -0.5 °C; in [18], -0.6 °C. The ΔTm is 1.1 °C in experiment [19], -0.2 °C in experiment [20] and 0.1 °C in [21].
On to `O=S(=O)(c1cccc2c(Cl)cccc12)N1CCCNCC1`, for which the ΔTm in experiment [1] is 0 °C; in [2], 0 °C; in experiment [3] it was -0.4 °C; in [4] it was 0.5 °C; in experiment [5], 2.5 °C; in [6], 0.2 °C. In addition, the ΔTm in experiment [7] was 0.4 °C; in experiment [8], -0.1 °C; in experiment [9] it was 0.3 °C; in [10], 0.1 °C; in [11], -0.4 °C; in experiment [12] it was 0 °C. The ΔTm is 0.1 °C in experiment [13]; -0.3 °C in [14]; -0.1 °C in [15]; -0.8 °C in experiment [16]; 0.5 °C in experiment [17]; 0 °C in experiment [18]. Besides, the ΔTm was found to be 0 °C in [19], 0.3 °C in experiment [20] and 0 °C in [21].
Take `C=CNC#N`: the ΔTm in experiment [1] was -0.2 °C; in experiment [2] it was 0.1 °C; in experiment [3], 0.4 °C; in experiment [4] it was 0 °C; in experiment [5], -0.2 °C; in experiment [6], 0.4 °C. In addition, the thermal shift (ΔTm) was -0.6 °C in experiment [7]; 0.4 °C in experiment [8]; 0.7 °C in [9]; 0.9 °C in experiment [10]; -0.7 °C in [11]; 0.7 °C in experiment [12]. Besides, the ΔTm in experiment [13] is 0.8 °C; in experiment [14], 1.8 °C; in experiment [15] it was 1.5 °C; in [16] it was 0.9 °C; in experiment [17], 0.7 °C; in [18], -1.1 °C. Moreover, the thermal shift (ΔTm) amounted to 0.3 °C in [19], 0 °C in experiment [20] and 0.9 °C in [21].
In the case of `CCN(CC)CCNC(=O)c1c(C)[nH]c(/C=C2\C(=O)Nc3ccc(Cl)cc32)c1C` [SU-11652], the shift in melting temperature (ΔTm) was -0.8 °C in [1]; 0.5 °C in experiment [2]; 3.5 °C in experiment [3]; 8.5 °C in [4]; 5.9 °C in experiment [5]; 7.4 °C in experiment [6]. Besides, the thermal shift (ΔTm) in experiment [7] is 0 °C; in experiment [8], 5.7 °C; in experiment [9], 2.7 °C; in [10], 0.3 °C; in [11], 7 °C; in [12], 2.6 °C. Also, the shift in melting temperature (ΔTm) was 3.8 °C in experiment [13]; 6.3 °C in experiment [14]; 5.8 °C in experiment [15]; 7.9 °C in experiment [16]; 2.3 °C in [17]; -0.4 °C in experiment [18]. The results for the ΔTm in experiment [19], in [20] and in [21] were 2.4 °C, 1.6 °C and 3.3 °C, respectively.
For the molecule `O=c1c(O)c(-c2ccc(O)c(O)c2)oc2cc(O)cc(O)c12` [QUERCETIN], the ΔTm in experiment [1] turned out to be 1.6 °C; in experiment [2], 1.7 °C; in experiment [3], 1.8 °C; in experiment [4] it was 5.6 °C; in experiment [5] it was 7.5 °C; in experiment [6], 5.3 °C. Further, the ΔTm in [7] was 1.9 °C; in experiment [8], 2.7 °C; in [9], 3.2 °C; in experiment [10], -0.2 °C; in experiment [11], 2.3 °C; in [12], 2.9 °C. Further, the shift in melting temperature (ΔTm) is 2.9 °C in experiment [13]; 2.4 °C in [14]; 8.1 °C in experiment [15]; 5.5 °C in experiment [16]; 2.7 °C in [17]; 0.4 °C in experiment [18]. Moreover, the ΔTm worked out at 3.6 °C in experiment [19], 4.2 °C in [20] and 6.7 °C in [21].
As to `CC(=O)O/N=C1/C(=C2/C(=O)Nc3cc(Br)ccc32)Nc2ccccc21` [6-BROMOINDIRUBIN-3'-ACETOXIME], the ΔTm in [1] is 0.7 °C; in [2], 0.4 °C; in [3] it was 2.1 °C; in experiment [4], 2.5 °C; in experiment [5] it was -1.3 °C; in experiment [6], 1.1 °C. For the same molecule, the ΔTm in [7] was 0 °C; in experiment [8] it was -0.6 °C; in [9] it was 0.9 °C; in experiment [10] it was 0.7 °C; in experiment [11], 2 °C; in [12], -1.4 °C. Also, the shift in melting temperature (ΔTm) in experiment [13] is 0.5 °C; in [14], 3.1 °C; in experiment [15] it was 0.1 °C; in experiment [16], -1.7 °C; in [17] it was -0.3 °C; in [18] it was -0.3 °C. In addition, the thermal shift (ΔTm) in experiment [19] is 0.8 °C; in experiment [20], 1.7 °C; in experiment [21] it was 4.6 °C.
In the case of `O=C1C(Cl)=C(N2C(=O)CCC2=O)C(=O)c2ccccc21`, the ΔTm in [1] is -0.3 °C; in [2], -0.2 °C; in experiment [3], 0.4 °C; in experiment [4], -0.8 °C; in [5], -7.6 °C; in experiment [6], -0.5 °C. The shift in melting temperature (ΔTm) in experiment [7] is 1 °C; in experiment [8] it was -1.9 °C; in experiment [9], -1.4 °C; in experiment [10], -0.7 °C; in experiment [11] it was 0.6 °C; in experiment [12], -9.6 °C. In addition, the ΔTm in experiment [13] is 0.1 °C; in experiment [14] it was -2.4 °C; in [15] it was -2.1 °C; in experiment [16], -2.5 °C; in [17], -1.5 °C; in [18] it was -4.4 °C. Besides, the ΔTm in experiment [19] is -11 °C; in [20] it was -1.5 °C; in [21], 1.2 °C.
